Test system: recombinant NL-Rluc virus
Experiment: Inhibition of HIV replication (NL-RLuc virus in MT-2 cells, luciferase readout)
Format: cell-based
Conditions: Human immunodeficiency virus 1, MT2, 120 h, 5 days of incubation, 10% FBS

Row | Compound | EC50
1 | Cc1nc2cc3nn2c(c1[C@H](OC(C)(C)C)C(=O)O)N1CCC(C)(/C=C/C=C\CCc2ccccc2-c2cccc-3c2)CC1 [Example 39, (2S)-2-(tert-Butoxy)-2-[(23Z,25E)-4,27-dimethyl-1,5,7,8-tetraazahexacyclo[25.2.2.1^6,^9.1^10,^14.0^2,^7.0^15,^20]tritriaconta-2,4,6(33),8,10(32),11,13, 15(20), 16,18,23,25-dodecaen-3-yl]acetic acid] | 118 nM
2 | Cc1nc2cc3nn2c(c1[C@H](OC(C)(C)C)C(=O)O)N1CCC(C)(/C=C/C=C/CCc2ccccc2-c2cccc-3c2)CC1 [Example 40, (2S)-2-(tert-Butoxy)-2-[(23E,25E)-4,27-dimethyl-1,5,7,8-tetraazahexacyclo[25.2.2.1^6,^9.1^10,^14.0^2,^7.0^15,^20]tritriaconta-2,4,6(33),8,10(32),11,13, 15(20), 16,18,23,25-dodecaen-3-yl]acetic acid] | 34 nM
3 | Cc1nc2cc3nn2c(c1[C@H](OC(C)(C)C)C(=O)O)N1CCC(C)(CCCCCCc2ccccc2-c2cccc-3c2)CC1 [Example 41, (2S)-2-(tert-Butoxy)-2-{4,27-dimethyl-1,5,7,8-tetraazahexacyclo[25.2.2.1^6,^9.1^10,^14.0^2,^7.0^15,^20]tritriaconta-2,4,6(33),8,10(32), 11,13,15(20),16,18-decaen-3-yl}acetic acid] | 180 nM
4 | Cc1nc2cc3nn2c(c1[C@H](OC(C)(C)C)C(=O)O)N1CCC(C)(/C=C/C=C\COc2ccc(Cl)cc2-c2cccc-3c2)CC1 [Example 42, (2S)-2-(tert-Butoxy)-2-[(23Z,25E)-17-chloro-4,27-dimethyl-21-oxa-1,5,7,8-tetraazahexacyclo[25.2.2.1^6,^9.1^10,^14.0^2,^7.0^15,^20]tritriaconta-2,4,6(33),8,10(32), 11, 13, 15(20),16,18,23,25-dodecaen-3-yl]acetic acid] | 35 nM
5 | Cc1nc2cc3nn2c(c1[C@H](OC(C)(C)C)C(=O)O)N1CCC(C)(/C=C/C=C/COc2ccc(Cl)cc2-c2cccc-3c2)CC1 [Example 43, (2S)-2-(tert-Butoxy)-2-[(23E,25E)-17-chloro-4,27-dimethyl-21-oxa-1,5,7,8-tetraazahexacyclo[25.2.2.1^6,^9.1^10,^14.0^2,^7.0^15,^20]tritriaconta-2,4,6(33),8,10(32), 11, 13, 15(20),16,18,23,25-dodecaen-3-yl]acetic acid] | 134 nM
6 | Cc1nc2cc3nn2c(c1[C@H](OC(C)(C)C)C(=O)O)N1CCC(C)(CCCCCOc2ccc(Cl)cc2-c2cccc-3c2)CC1 [Example 44, (2S)-2-(tert-Butoxy)-2-{17-chloro-4,27-dimethyl-21-oxa-1,5,7,8-tetraazahexacyclo[25.2.2.1^6,^9.1^10,^14.0^2,^7.0^15,^20]tritriaconta-2,4, 6(33), 8, 10(32), 11, 13, 15 (20),16,18-decaen-3-yl}acetic acid] | 41 nM
7 | Cc1nc2cc3nn2c(c1[C@H](OC(C)(C)C)C(=O)O)N1CCC(C)(/C=C/CCCOc2ccc(Cl)cc2-c2cccc-3c2)CC1 [Example 45, (2S)-2-(tert-Butoxy)-2-[(25E)-17-chloro-4,27-dimethyl-21-oxa-1,5,7,8-tetraazahexacyclo[25.2.2.1^6,^9.1^10,^14.0^2,^7.0^15,^20]tritriaconta-2,4,6(33),8,10(32),11,13,15(20),16,18,25-undecaen-3-yl]acetic acid] | 33 nM
8 | Cc1nc2cc3nn2c(c1[C@H](OC(C)(C)C)C(=O)O)N1CCC(C)(CC1)OCCCCCc1ncccc1-c1cccc-3c1 [Example 46, (2S)-2-(tert-Butoxy)-2-{4,27-dimethyl-26-oxa-1,5,7,8,19-pentaazahexacyclo[25.2.2.1^6,^9.1^10,^14.0^2,^7.0^15,^20]tritriaconta-2,4,6(33),8,10(32),11,13,15(20),16,18-decaen-3-yl}acetic acid] | 10 nM
9 | Cc1nc2cc3nn2c(c1[C@H](OC(C)(C)C)C(=O)O)N1CCC(C)(CC1)OC/C=C\COc1cc(F)ccc1-c1cccc-3c1 [Example 47, (2S)-2-(tert-Butoxy)-2-[(23Z)-18-fluoro-4,2,7-dimethyl-21,26-dioxa-1,5,7,8-tetraazahexacyclo[25.2.2.1^6,^9.1^10,^14.0^2,^7.0^15,^20]tritriaconta-2,4,6(33),8,10(32),11,13,15(20),16,18,23-undecaen-3-yl]acetic acid] | 14 nM
10 | Cc1nc2cc3nn2c(c1[C@H](OC(C)(C)C)C(=O)O)N1CCC(C)(CC1)OC/C=C/COc1cc(F)ccc1-c1cccc-3c1 [Example 48, (2S)-2-(tert-Butoxy)-2-[(23E)-18-fluoro-4,2,7-dimethyl-21,26-dioxa-1,5,7,8-tetraazahexacyclo[25.2.2.1^6,^9.1^10,^14.0^2,^7.0^15,^20]tritriaconta-2,4,6(33),8,10(32),11,13,15(20),16,18,23-undecaen-3-yl]acetic acid] | 11 nM
11 | Cc1nc2cc3nn2c(c1[C@H](OC(C)(C)C)C(=O)O)N1CCC(C)(CC1)OCCCCOc1cc(F)ccc1-c1cccc-3c1 [Example 49, (2S)-2-(tert-Butoxy)-2-{18-fluoro-4,27-dimethyl-21,26-dioxa-1,5,7,8-tetraazahexacyclo[25.2.2.1^6,^9.1^10,^14.0^2,^7.0^15,^20]tritriaconta-2,4,6(33),8,10(32),11,13,15(20),16,18-decaen-3-yl}acetic acid] | 9 nM
12 | Cc1nc2cc3nn2c(c1[C@H](OC(C)(C)C)C(=O)O)N1CCC(C)(CC/C=C/CCc2ccncc2-c2cccc-3c2)CC1 [Example 50, (2S)-2-(tert-Butoxy)-2-[(23E)-4,27-dimethyl-1,5,7,8,17-pentaazahexacyclo[25.2.2.1^6,^9.1^10,^14.0^2,^7.0^15,^20]tritriaconta-2,4,6(33),8,10(32),11,13,15(20),16,18,23-undecaen-3-yl]acetic acid] | 6 nM
13 | Cc1nc2cc3nn2c(c1[C@H](OC(C)(C)C)C(=O)O)N1CCC(C)(CC/C=C\CCc2ccncc2-c2cccc-3c2)CC1 [Example 51, (2S)-2-(tert-Butoxy)-2-[(23Z)-4,27-dimethyl-1,5,7,8,17-pentaazahexacyclo[25.2.2.1^6,^9.1^10,^14.0^2,^7.0^15,^20]tritriaconta-2,4,6(33),8,10(32),11,13,15(20),16,18,23-undecaen-3-yl]acetic acid] | 6 nM
14 | Cc1nc2cc3nn2c(c1[C@H](OC(C)(C)C)C(=O)O)N1CCC(C)(CCCCCCc2ccncc2-c2cccc-3c2)CC1 [Example 52, (2S)-2-(tert-Butoxy)-2-{4,27-dimethyl-1,5,7,8,17-pentaazahexacyclo[25.2.2.1^6,^9.1^10,^14.0^2,^7.0^15,^20]tritriaconta-2,4,6(33),8,10(32),11,13,15(20),16,18-decaen-3-yl}acetic acid] | 5 nM
15 | Cc1ccc2c(c1)-c1cccc(c1)-c1cc3nc(C)c([C@H](OC(C)(C)C)C(=O)O)c(n3n1)N1CCC(C)(CC1)OC/C=C/C[C@H](C)O2 [Example 53, (2S)-2-(tert-Butoxy)-2-[(22S,^24E)-4,17,22,28-tetramethyl-21,27-dioxa-1,5,7,8-tetraazahexacyclo[26.2.2.1^6,^9.1^10,^14.0^2,^7.0^15,^20]tetratriaconta-2,4,6(34),8,10(33),11,13,15(20),16,18,24-undecaen-3-yl]acetic acid] | 10 nM
16 | Cc1ccc2c(c1)-c1cccc(c1)-c1cc3nc(C)c([C@H](OC(C)(C)C)C(=O)O)c(n3n1)N1CCC(C)(CC1)OC/C=C\C[C@H](C)O2 [Example 54, (2S)-2-(tert-Butoxy)-2-[(22S,24Z)-4,17,22,28-tetramethyl-21,27-dioxa-1,5,7,8-tetraazahexacyclo[26.2.2.1^6,^9.1^10,^14.0^2,^7.0^15,^20]tetratriaconta-2,4,6(34),8,10(33),11,13,15(20),16,18,24-undecaen-3-yl]acetic acid] | 130 nM
17 | Cc1ccc2c(c1)-c1cccc(c1)-c1cc3nc(C)c([C@H](OC(C)(C)C)C(=O)O)c(n3n1)N1CCC(C)(CC1)OCCCC[C@H](C)O2 [Example 55, (2S)-2-(tert-Butoxy)-2-[(22S)-4,17,22,28-tetramethyl-21,27-dioxa-1,5,7,8-tetraazahexacyclo[26.2.2.1^6,^9.1^10,^14.0^2,^7.0^15,^20]tetratriaconta-2,4,6(34), 8, 10(33), 11, 13, 15 (20),16,18-decaen-3-yl]acetic acid] | 14 nM
18 | Cc1nc2cc3nn2c(c1[C@H](OC(C)(C)C)C(=O)O)N1CCC(C)(CC1)OCC=C[C@@H](C)Oc1ccncc1-c1cccc-3c1 [Example 56, (2S)-2-(tert-Butoxy)-2-[(22R)-4,22,27-trimethyl-21,26-dioxa-1,5,7,8,17-pentaazahexacyclo[25.2.2.1^6,^9.1^10,^14.0^2,^7.0^15,^20]tritriaconta-2,4,6(33),8,10(32), 11, 13, 15 (20),16,18,23-undecaen-3-yl]acetic acid] | 351 nM
19 | Cc1nc2cc3nn2c(c1[C@H](OC(C)(C)C)C(=O)O)N1CCC(C)(CC1)OCC=C[C@H](C)Oc1ccncc1-c1cccc-3c1 [Example 57, (2S)-2-(tert-Butoxy)-2-[(22S)-4,22,27-trimethyl-21,26-dioxa-1,5,7,8,17-pentaazahexacyclo[25.2.2.1^6,^9.1^10,^14.0^2,^7.0^15,^20]tritriaconta-2,4,6(33),8,10(32), 11, 13, 15(20),16,18,23-undecaen-3-yl]acetic acid] | 300 nM
20 | Cc1ccc2c(c1)-c1cccc(c1)-c1cc3nc(C)c([C@H](OC(C)(C)C)C(=O)O)c(n3n1)N1CCC(C)(CC1)OCC=C[C@@H](C)O2 [Example 58, (2S)-2-(tert-Butoxy)-2-[(22R)-4,17,22,2,7-tetramethyl-21,26-dioxa-1,5,7,8-tetraazahexacyclo[25.2.2.1^6,^9.1^10,^14.0^2,^7.0^15,^20]tritriaconta-2,4,6(33),8,10(32),11,13,15(20),16,18,23-undecaen-3-yl]acetic acid] | 74 nM
21 | Cc1ccc2c(c1)-c1cccc(c1)-c1cc3nc(C)c([C@H](OC(C)(C)C)C(=O)O)c(n3n1)N1CCC(C)(CC1)OCC=C[C@H](C)O2 [Example 59, (2S)-2-(tert-Butoxy)-2-[(22S)-4,17,22,27-tetramethyl-21,26-dioxa-1,5,7,8-tetraazahexacyclo[25.2.2.1^6,^9.1^10,^14.0^2,^7.0^15,^20]tritriaconta-2,4,6(33),8,10(32),11,13,15(20),16,18,23-undecaen-3-yl]acetic acid] | 8 nM

From patent publication US8906929B2, “Inhibitors of human immunodeficiency virus replication” (priority 2012, dated 2014)
